Test results taken from US20080200393A1, “Method and Composition For Treating Angiogenesis and For Preventing Cancer Progression and Metastasis Comprising a Prostate Secretory Protein (Psp94) Family Member” (Ambrillia Biopharma Inc., priority 2004, published 2008).
Where no end group is shown, it is not given here.

Key:
ERK [1] = assay: VEGF-induced ERK phosphorylation in BAEC; assay type: cell-based; conditions: BAEC (not shown)
HUVEC = assay: Matrigel endothelial cell tube formation assay; assay type: cell-based, Human; conditions: HUVEC on Matrigel, 0-300 μg/ml, serum-free media, 24 hours
Method: Matrigel endothelial cell tube formation assay Matrigel (12.5 mg/ml) was thawed at 4° C., and 50 μl were quickly added to each well of a 96-well plate and allowed to solidify for 10 min at 37° C. […] The formation of capillary-like structures was examined microscopically and pictures (50×) were taken using a Retiga 1300 camera and a Zeiss Axiovert S100 microscope. The extent to which capillary-like structures formed in the gel was quantified by analysis of digitized images to determine the thread length of the capillary-like network, using a commercially available image analysis program (Northern Eclipse).
Matrigel endothelial cell tube formation assay. […] The extent to which capillary-like structures formed in the gel was quantified by analysis of digitized images using a commercially available image analysis software (Northern Eclipse) (25).
This three dimensional ECM model assay provides physiologically relevant environment for studies of cell morphology, biochemical function, and gene expression in endothelial cells (EC) that can be modulated for instance by tumor growth factors or hypoxic culture conditions. […] The extent of capillary-like structures formation (density and size of structures) can be quantified by analysis of digitized images to determine the relative size and area covered by the tube-like network, using an image analysis software (Un-Scan-it, Empix Imaging). […]

PDGF receptor (PDGFR) = target: T1, PDGF receptor (PDGFR) (Homo sapiens, UniProt P09619); assay: PDGF-induced PDGFR phosphorylation in PASMC; assay type: cell-based
T1 construct: the PDGF receptor (PDGFR) in PASMC (pulmonary aortic smooth muscle cells); host or cells: PASMC (pulmonary aortic smooth muscle cells)
T1 sequence (P09619 33-1106): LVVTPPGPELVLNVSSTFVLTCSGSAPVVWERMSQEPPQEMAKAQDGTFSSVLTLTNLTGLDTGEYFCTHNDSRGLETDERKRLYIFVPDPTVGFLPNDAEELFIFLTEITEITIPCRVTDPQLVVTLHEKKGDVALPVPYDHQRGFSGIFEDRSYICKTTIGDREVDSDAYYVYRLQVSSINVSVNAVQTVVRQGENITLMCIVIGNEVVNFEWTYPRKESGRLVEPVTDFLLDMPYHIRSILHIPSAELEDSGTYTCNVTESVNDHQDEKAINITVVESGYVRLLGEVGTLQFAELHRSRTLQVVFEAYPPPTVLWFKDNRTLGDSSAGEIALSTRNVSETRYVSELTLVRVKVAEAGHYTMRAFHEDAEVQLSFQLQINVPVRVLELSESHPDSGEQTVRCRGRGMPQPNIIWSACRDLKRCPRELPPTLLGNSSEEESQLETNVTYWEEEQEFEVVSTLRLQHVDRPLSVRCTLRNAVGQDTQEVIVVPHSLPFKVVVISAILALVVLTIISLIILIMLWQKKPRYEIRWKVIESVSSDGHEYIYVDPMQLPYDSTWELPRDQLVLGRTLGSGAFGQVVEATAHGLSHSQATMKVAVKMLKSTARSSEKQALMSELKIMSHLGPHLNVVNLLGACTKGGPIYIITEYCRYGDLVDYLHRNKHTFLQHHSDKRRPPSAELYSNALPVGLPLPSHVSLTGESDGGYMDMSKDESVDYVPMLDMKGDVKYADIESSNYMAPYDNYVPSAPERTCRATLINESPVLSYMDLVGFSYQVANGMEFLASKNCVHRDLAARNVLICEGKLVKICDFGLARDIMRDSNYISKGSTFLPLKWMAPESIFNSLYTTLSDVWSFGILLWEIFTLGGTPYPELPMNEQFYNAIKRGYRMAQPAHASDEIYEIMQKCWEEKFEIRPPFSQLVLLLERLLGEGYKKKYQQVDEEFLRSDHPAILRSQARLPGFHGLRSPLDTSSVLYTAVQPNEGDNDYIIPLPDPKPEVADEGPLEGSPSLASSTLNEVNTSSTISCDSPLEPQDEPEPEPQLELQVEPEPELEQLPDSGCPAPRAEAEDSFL
Method: (§1) Cell culture. Human umbilical vein endothelial cells (HUVEC) and pulmonary aortic smooth muscle cells (PASMC) were obtained from Clonetics and maintained in endothelial cell basal medium-2 (EBM-2; Clonetics) and smooth muscle medium-2 (SmGM-2; Clonetics), respectively. Cells were cultured at 37° C. under a humidified atmosphere containing 5% CO2. For experimental purposes, cells were plated in 8 100-mm plastic dishes at 5,000 cells/cm^2 and were grown to confluence before overnight serum starvation. Cells were treated with vehicle or with a PCK3145 derivative diluted in 0.1 N NaOH, and stimulated with 50-100 ng/ml VEGF or PDGF, with 10 ng/ml of bFGF (basic fibroblast growth factor) or with 1 μM S1P (sphingosine-1-phosphate).
(§2) Immunoprecipitation and immunoblotting procedures. After treatment, cells were washed once with phosphate-buffered saline (PBS) containing 1 mM sodium orthovanadate and were incubated in the same medium for 1 h at 4° C. […] The cells were then scraped from the culture dishes and the resulting lysates were clarified by centrifugation at 10,000 g for 10 min; Protein concentrations were determined using the micro bicinchoninic acid method (Pierce). […] The immunoreactive bands were quantified by scanning densitometry (Molecular Dynamics). […]

ERK [2] = assay: PDGF-induced ERK phosphorylation in PASMC; assay type: cell-based
Method: as §1, §2

glioma cells (U-87) = assay: SEAP gene-reporter assay (Mercury Profiling Kit); assay type: cell-based
Method: In order to investigate the potential intracellular pathways triggered by the PCK3145 derivative, a gene-reporter assay using the SEAP (Secreted Alkaline Phosphatase) Mercury Profiling Kit (CLONTECH) was performed in glioma cells (U-87). This assay enables the monitoring of transcription factors that are triggered by a particular experimental condition by assaying the alkaline phosphatase activity in the extracellular media.

ERK [3] = assay: Intrinsic effect on ERK phosphorylation (Western blot); assay type: cell-based
Method: The induction of the MAPK pathway by the PCK3145 derivative is further confirmed by the rapid and transient induction of ERK phosphorylation between 5-10 minutes (FIG. 8B) and is shown to be dose-dependent (FIG. 8C). Finally, the effects of the PCK3145 derivative were also compared to those of a scrambled peptide.

PDGFR phosphorylation induced by PDGF (PDGF receptor (PDGFR)): inhibition
Sequence: EWQTDNCETCTCYET (cysteine pairing not given here) [PCK3145 derivative, PCK3145 derivative with acetylaminomethyl groups on the three cysteines]
ERK phosphorylation induced by VEGF (ERK [1]): inhibitory effect was confirmed
capillary-like structure formation (tubulogenesis) (HUVEC): negatively affects tubulogenesis
PDGF-induced ERK phosphorylation (ERK [2]): inhibition
MAPK/JNK pathway (SRE), SEAP reporter (glioma cells (U-87)): triggers significantly
NFkB pathway, SEAP reporter (glioma cells (U-87)): triggers significantly
secretion of the constitutively expressed SEAP (glioma cells (U-87)): inhibited
induction of ERK phosphorylation, dose dependence (ERK [3]; dose-response): dose-dependent
time of rapid and transient induction of ERK phosphorylation (ERK [3]; time-course): 5 to 10 min
